This is an account of results in patent publication US20260125675A1, “DOWNREGULATING TROLLS USING NOVEL ANTISENSE OLIGONUCLEOTIDES TO OVERCOME RESISTANCE TO CHEMOTHERAPY” (H. LEE MOFFITT CANCER CENTER AND RESEARCH INSTITUTE, INC., priority 2022, published 2026).

What all share (type): cell-based, human
Settings in all cases: treated 72 hr

The subject of one assay is TROLL-2. Put plainly: qRT-PCR for TROLL-2 in CAID cells treated with the indicated drugs. Here is the method: (§1) 195. We were interested in determining the effect of treatment with adriamycin, docetaxel, or paclitaxel on the levels of TOLL-2 and TROLL-3. qRT-PCR was performed for TROLL-2 and TROLL-3 in CAID cells treated with the indicated drugs for 72 hr. Western blosts of the levels of phosphorylated and total AKT, and relative quantification were determined (FIG. 1). […] We next observed that the levels of TROLL-3 are higher in lung adenocarcinoma (LUAD) with EGFR mutations with EGFR mutations in 2 distinct cohorts of patients (the TCGA cohort and Moffitt cohort) (FIGS. 2 and 3). Next we looked at the association association between pAKT levels and resistance to treatment in a panel of LUAD cell lines. Western blot levels of phosphorylated and total AKT in the indicated cell lines. Red boxes denote cell lines where PAKT levels are higher in the cells resistant to the indicated inhibitors compared to the respective parental cells (FIG. 4). Such increase in pAKT levels is associated with the resistance to anti-cancer treatment. To see the effect of TROLL-2 or TROLL-3 downregulation of pAKT levels in LUAD cells, we prefromed western blosts of the lvels of phosphorylated and total AKT in parental and KRASi resistant or EGFRi resistant cells using untreated on siRNA knockdown of TROLL-2 or TROLL-3 (FIGS. 5 and 6). We observed that downregulation of TROLL-2 or TROLL-3 reduces pAKT levels in KRASi and EGFRi resistant LUAD cells. Next we identified antisense LNA GapmeRs targeting TROLL-2 and TROLL-3 (50 nM-2 experiments). We used […]-PCR (qRT-PCR) for TROLL-2 and TROLL-3 in CAID cells treated with the indicated Antisense LNA GapmeRs for 48 hr. The following reagents were purchased from Qiagen: negative control=LG00000002-DDB, TROLL-2 A=LG00807687-DDB. TROLL-2 B=LG00807688-DDB, TROLL-2 C=LG00807689-DDB. TROLL-2 D=LG00807691-DDB, TROLL-2 E=LG00807694-DDB, TROLL-3 A=LG00807697-DDB, TROLL-3 B=LG00807698-DDB, TROLL-3 C=LG00807699-DDB, TROLL-3 D=LG00807700-DDB, and TROLL-3 E=LG00807701-DDB (FIG. 7). […]

Another assay has as its system TROLL-3. In words: qRT-PCR for TROLL-3 in CAID cells treated with the indicated drugs. As to the method:
as §1

The subject of another assay is AKT. Put plainly: Western blot of phosphorylated and total AKT in drug-treated CAID cells. As to the method:
as §1

For the compound `CC(=O)O[C@H]1C(=O)[C@@]2(C)[C@H]([C@H](OC(=O)c3ccccc3)[C@]3(O)C[C@H](OC(=O)[C@H](O)[C@@H](NC(=O)c4ccccc4)c4ccccc4)C(C)=C1C3(C)C)[C@]1(OC(C)=O)CO[C@@H]1C[C@@H]2O` [paclitaxel], the “levels of TROLL-2 (qRT-PCR)” value in the assay on TROLL-2 is given as “increases”. For the same compound, the “levels of TROLL-3 (qRT-PCR)” value in the assay with TROLL-3 was “increases”. For the same compound, in the assay on AKT, the “AKT pathway activation (phosphorylated and total AKT, western blot)” value (from here on “AKT pathway activation”) is listed as “activation of the AKT pathway”.
On to `CC(=O)O[C@@]12CO[C@@H]1C[C@H](O)[C@@]1(C)C(=O)[C@H](O)C3=C(C)[C@@H](OC(=O)[C@H](O)[C@@H](NC(=O)OC(C)(C)C)c4ccccc4)C[C@@](O)([C@@H](OC(=O)c4ccccc4)[C@H]21)C3(C)C` [docetaxel], for which, in the assay on TROLL-2, the “levels of TROLL-2 (qRT-PCR)” value is on record as “increases”. In addition, the “levels of TROLL-3 (qRT-PCR)” value in the assay on TROLL-3 is recorded as “increases”. In the assay with AKT, the “AKT pathway activation” value is given as “activation of the AKT pathway”.
For `COc1cccc2c1C(=O)c1c(O)c3c(c(O)c1C2=O)C[C@@](O)(C(=O)CO)C[C@@H]3O[C@H]1C[C@H](N)[C@H](O)[C@H](C)O1` [adriamycin], in the assay with TROLL-2, the “levels of TROLL-2 (qRT-PCR)” value is “increases”. For the same compound, the “levels of TROLL-3 (qRT-PCR)” value in the assay with TROLL-3 was “increases”. The “AKT pathway activation” value in the assay with AKT was “activation of the AKT pathway”.
